Assay results from ChEMBL document CHEMBL3632622, “Synthesis and biological evaluation of novel N-phenyl ureidobenzenesulfonate derivatives as potential anticancer agents. Part 2. Modulation of the ring B” (Eur J Med Chem, 2015).
One block for each compound: values may come before it. Calls of active or inactive are those of the source. The calls are words filed in the database; no cut-off is given here.

Key:
M21 [1] = assay: Cell cycle arrest in human M21 cells assessed as accumulation at S phase at 3.9 uM after 24 hrs by DAPI staining-based flow cytometry (reference value: 17.4%); assay type: functional
HT-29 = assay: Antiproliferative activity against human HT-29 cells assessed as growth inhibition incubated for 48 hrs by sulforhodamine B assay; assay type: functional, cell-based; conditions: HT-29, 48 h
M21 [2] = assay: Induction DNA DSBs in human M21 cells assessed as increase in gamma H2AX foci at 3.9 uM incubated for 24 hrs by DAPI staining based immunocytochemistry; assay type: cell-based
M21 [3] = assay: Cell cycle arrest in human M21 cells assessed as accumulation at G0/G1 phase at 3.9 uM after 24 hrs by DAPI staining-based flow cytometry (reference value: 65.1%); assay type: functional
M21 [4] = assay: Cell cycle arrest in human M21 cells assessed as accumulation at G2/M phase at 3.9 uM after 24 hrs by DAPI staining-based flow cytometry (reference value: 16%); assay type: functional
MCF7 = assay: Antiproliferative activity against human MCF7 cells assessed as growth inhibition incubated for 48 hrs by sulforhodamine B assay; assay type: functional, cell-based; conditions: MCF7, 48 h
[5] = Antiproliferative activity against human HT1080 cells assessed as growth inhibition incubated for 48 hrs by sulforhodamine B assay; assay type: functional, cell-based, HT-1080; conditions: Homo sapiens, HT-1080, 48 h; read-out: IC50
M21 [6] = assay: Antiproliferative activity against human M21 cells assessed as growth inhibition incubated for 48 hrs by sulforhodamine B assay; assay type: functional, cell-based; conditions: M21, 48 h
M21 [7] = assay: Cell cycle arrest in human M21 cells assessed as accumulation at subG1 phase at 3.9 uM after 24 hrs by DAPI staining-based flow cytometry (reference value: 1.5%); assay type: functional
M21 [8] = assay: Cell cycle arrest in human M21 cells assessed as accumulation at G2/M phase at 16 uM after 24 hrs by DAPI staining-based flow cytometry (reference value: 16%); assay type: functional
M21 [9] = assay: Cell cycle arrest in human M21 cells assessed as accumulation at S phase at 16 uM after 24 hrs by DAPI staining-based flow cytometry (reference value: 17.4%); assay type: functional
M21 [10] = assay: Cell cycle arrest in human M21 cells assessed as accumulation at subG1 phase at 16 uM after 24 hrs by DAPI staining-based flow cytometry (reference value: 1.5%); assay type: functional
M21 [11] = assay: Cell cycle arrest in human M21 cells assessed as accumulation at G0/G1 phase at 16 uM after 24 hrs by DAPI staining-based flow cytometry (reference value: 65.1%); assay type: functional
M21 [12] = assay: Cell cycle arrest in human M21 cells assessed as accumulation at G2/M phase at 5.1 uM after 24 hrs by DAPI staining-based flow cytometry (reference value: 16%); assay type: functional
M21 [13] = assay: Cell cycle arrest in human M21 cells assessed as accumulation at subG1 phase at 5.1 uM after 24 hrs by DAPI staining-based flow cytometry (reference value: 1.5%); assay type: functional
M21 [14] = assay: Cell cycle arrest in human M21 cells assessed as accumulation at S phase at 5.1 uM after 24 hrs by DAPI staining-based flow cytometry (reference value: 17.4%); assay type: functional
M21 [15] = assay: Cell cycle arrest in human M21 cells assessed as accumulation at G0/G1 phase at 5.1 uM after 24 hrs by DAPI staining-based flow cytometry (reference value: 65.1%); assay type: functional
M21 [16] = assay: Cell cycle arrest in human M21 cells assessed as accumulation at subG1 phase at 48 uM after 24 hrs by DAPI staining-based flow cytometry (reference value: 1.5%); assay type: functional
M21 [17] = assay: Cell cycle arrest in human M21 cells assessed as accumulation at G0/G1 phase at 48 uM after 24 hrs by DAPI staining-based flow cytometry (reference value: 65.1%); assay type: functional
M21 [18] = assay: Cell cycle arrest in human M21 cells assessed as accumulation at S phase at 48 uM after 24 hrs by DAPI staining-based flow cytometry (reference value: 17.4%); assay type: functional
M21 [19] = assay: Cell cycle arrest in human M21 cells assessed as accumulation at G2/M phase at 48 uM after 24 hrs by DAPI staining-based flow cytometry (reference value: 16%); assay type: functional
M21 [20] = assay: Cell cycle arrest in human M21 cells assessed as accumulation at G0/G1 phase at 2.2 uM after 24 hrs by DAPI staining-based flow cytometry (reference value: 65.1%); assay type: functional
M21 [21] = assay: Cell cycle arrest in human M21 cells assessed as accumulation at subG1 phase at 2.2 uM after 24 hrs by DAPI staining-based flow cytometry (reference value: 1.5%); assay type: functional
M21 [22] = assay: Cell cycle arrest in human M21 cells assessed as accumulation at G2/M phase at 2.2 uM after 24 hrs by DAPI staining-based flow cytometry (reference value: 16%); assay type: functional
M21 [23] = assay: Cell cycle arrest in human M21 cells assessed as accumulation at S phase at 2.2 uM after 24 hrs by DAPI staining-based flow cytometry (reference value: 17.4%); assay type: functional
M21 [24] = assay: Cell cycle arrest in human M21 cells assessed as accumulation at subG1 phase at 3.3 uM after 24 hrs by DAPI staining-based flow cytometry (reference value: 1.5%); assay type: functional
M21 [25] = assay: Induction DNA DSBs in human M21 cells assessed as increase in gamma H2AX foci at 3.3 uM incubated for 24 hrs by DAPI staining based immunocytochemistry; assay type: functional, cell-based
M21 [26] = assay: Cell cycle arrest in human M21 cells assessed as accumulation at S phase at 3.3 uM after 24 hrs by DAPI staining-based flow cytometry (reference value: 17.4%); assay type: functional
M21 [27] = assay: Cell cycle arrest in human M21 cells assessed as accumulation at G0/G1 phase at 3.3 uM after 24 hrs by DAPI staining-based flow cytometry (reference value: 65.1%); assay type: functional
M21 [28] = assay: Cell cycle arrest in human M21 cells assessed as accumulation at G2/M phase at 3.3 uM after 24 hrs by DAPI staining-based flow cytometry (reference value: 16%); assay type: functional

SMILES: O=C(NCCCl)Nc1ccc(S(=O)(=O)Oc2c(F)cccc2F)cc1
IC50 (HT-29): 4.1 µM
Activity (M21 [8]): 46.8%
Activity (M21 [9]): 15.1%
IC50 (MCF7): 4.8 µM
IC50 [5]: 3.2 µM
IC50 (M21 [6]): 3.2 µM
Activity (M21 [10]): 8.7%
Activity (M21 [11]): 29.4%

SMILES: O=C(NCCCl)Nc1ccc(S(=O)(=O)Oc2cc(Cl)c(Cl)cc2Cl)cc1
Activity (M21 [12]): 82.6%
IC50 (HT-29): 1.2 µM
IC50 (MCF7): 1.2 µM
Activity (M21 [13]): 5.5%
IC50 [5]: 1.4 µM
Activity (M21 [14]): 8.6%
IC50 (M21 [6]): 1 µM
Activity (M21 [15]): 3.3%

SMILES: Cc1cc(C)c(OS(=O)(=O)c2ccc(NC(=O)NCCCl)cc2)cc1C
Activity (M21 [24]): 1.7%
IC50 (HT-29): 2.3 µM
Activity (M21 [25]): Active
Activity (M21 [26]): 43.8%
IC50 (MCF7): 3 µM
Activity (M21 [27]): 27.5%
IC50 [5]: 1 µM
IC50 (M21 [6]): 1.7 µM
Activity (M21 [28]): 27%

Further lines, with some results ahead:

IC50 (HT-29): 2.8 µM
IC50 (MCF7): 3.7 µM
SMILES: Cc1cccc(C)c1OS(=O)(=O)c1ccc(NC(=O)NCCCl)cc1
Activity (M21 [1]): 47.1%
Activity (M21 [2]): Active
Activity (M21 [3]): 31%
Activity (M21 [4]): 20.3%
IC50 [5]: 1.1 µM
IC50 (M21 [6]): 2 µM
Activity (M21 [7]): 1.6%

IC50 (HT-29): 9.6 µM
IC50 (MCF7): 9.3 µM
SMILES: O=C(NCCCl)Nc1ccc(S(=O)(=O)Oc2ccc(F)cc2F)cc1
Activity (M21 [16]): 5.2%
Activity (M21 [17]): 13.4%
Activity (M21 [18]): 10%
IC50 [5]: 9.4 µM
IC50 (M21 [6]): 9.6 µM
Activity (M21 [19]): 71.4%

IC50 (HT-29): 1.4 µM
IC50 (MCF7): 1.7 µM
SMILES: CCOc1ccccc1OS(=O)(=O)c1ccc(NC(=O)NCCCl)cc1
Activity (M21 [20]): 28.8%
Activity (M21 [21]): 6.7%
Activity (M21 [22]): 52.7%
Activity (M21 [23]): 11.8%
IC50 [5]: 2.2 µM
IC50 (M21 [6]): 1.1 µM
